From patent US6656946B2, “Aminoquinazolines which inhibit signal transduction mediated by tyrosine kinases” (Boehringer Ingelheim Pharma KG, priority 2000, dated 2003)

What was measured:
human EGF-R = target: T1, human EGF-R (Homo sapiens, UniProt P00533); assay: Inhibition of EGF-dependent proliferation of F/L-HERc cells; format: cell-based; details: F/L-HERc cells (murine IL-3-dependent line expressing human EGF-R), stimulated with EGF 20 ng/ml, 48 hours, Cell Titer 96 AQueous assay
T1 construct: expressed in transfected cells; host or cells: F/L-HERc (murine IL-3-dependent FDC-P1 cells transduced with retroviral vector LXSN carrying the human EGF-R cDNA; packaging line GP+E86)
Excerpt: A cell line of murine origin dependent on interleukin-3-(IL-3) which was genetically modified to express functional human EGF-R was used here. The proliferation of these cells known as F/L-HERc can therefore be stimulated either by murine IL-3 or by EGF (cf. von Rüden, T. et al. in EMBO J. 7, 2749-2756 (1988) and Pierce, J. H. et al. in Science 239, 628-631 (1988)).
The starting material used for the F/L-HERc cells was the cell line FDC-P1, the production of which has been described by Dexter, T. M. et al. in J. Exp. Med. 152, 1036-1047 (1980). Alternatively, however, other growth-factor-dependent cells may also be used (cf. for example Pierce, J. H. et al. in Science 239, 628-631 (1988), Shibuya, H. et al. in Cell 70, 57-67 (1992) and Alexander, W. S. et al. in EMBO J. 10, 3683-3691 (1991)). For expressing the human EGF-R cDNA (cf. Ullrich, A. et al. in Nature 309, 418-425 (1984)) recombinant retroviruses were used as described by von Rüden, T. et al., EMBO J. 7, 2749-2756 (1988), except that the retroviral vector LXSN (cf. Miller, A. D. et al. in BioTechniques 7, 980-990 (1989)) was used for the expression of the EGF-R cDNA and the line GP+E86 (cf. Markowitz, D. et al. in J. Virol. 62, 1120-1124 (1988)) was used as the packaging cell.
The test was performed as follows:
F/L-HERc cells were cultivated in RPMI/1640 medium (BioWhittaker), supplemented with 10% foetal calf serum (FCS, Boehringer Mannheim), 2 mM glutamine (BioWhittaker), standard antibiotics and 20 ng/ml of human EGF (Promega), at 37° C. and 5% CO2. In order to investigate the inhibitory activity of the compounds according to the invention, 1.5×10^4 cells per well were cultivated in triplicate in 96-well dishes in the above medium (200 μl), the cell proliferation being stimulated with either EGF (20 ng/ml) or murine IL-3. The IL-3 used was obtained from culture supernatants of the cell line X63/0 mIL-3 (cf. Karasuyama, H. et al. in Eur. J. Immunol. 18, 97-104 (1988)). The compounds according to the invention were dissolved in 100% dimethylsulphoxide (DMSO) and added to the cultures in various dilutions, the maximum DMSO concentration being 1%. The cultures were incubated for 48 hours at 37° C.
In order to determine the inhibitory activity of the compounds according to the invention the relative cell number was measured in O.D. units using the Cell Titer 96™ AQueous Non-Radioactive Cell Proliferation Assay (Promega). The relative cell number was calculated as a percentage of the control (F/LHERc cells without inhibitor) and the concentration of active substance which inhibits the proliferation of the cells by 50% (IC50) was derived therefrom.

T1 sequence (P00533 25-1210): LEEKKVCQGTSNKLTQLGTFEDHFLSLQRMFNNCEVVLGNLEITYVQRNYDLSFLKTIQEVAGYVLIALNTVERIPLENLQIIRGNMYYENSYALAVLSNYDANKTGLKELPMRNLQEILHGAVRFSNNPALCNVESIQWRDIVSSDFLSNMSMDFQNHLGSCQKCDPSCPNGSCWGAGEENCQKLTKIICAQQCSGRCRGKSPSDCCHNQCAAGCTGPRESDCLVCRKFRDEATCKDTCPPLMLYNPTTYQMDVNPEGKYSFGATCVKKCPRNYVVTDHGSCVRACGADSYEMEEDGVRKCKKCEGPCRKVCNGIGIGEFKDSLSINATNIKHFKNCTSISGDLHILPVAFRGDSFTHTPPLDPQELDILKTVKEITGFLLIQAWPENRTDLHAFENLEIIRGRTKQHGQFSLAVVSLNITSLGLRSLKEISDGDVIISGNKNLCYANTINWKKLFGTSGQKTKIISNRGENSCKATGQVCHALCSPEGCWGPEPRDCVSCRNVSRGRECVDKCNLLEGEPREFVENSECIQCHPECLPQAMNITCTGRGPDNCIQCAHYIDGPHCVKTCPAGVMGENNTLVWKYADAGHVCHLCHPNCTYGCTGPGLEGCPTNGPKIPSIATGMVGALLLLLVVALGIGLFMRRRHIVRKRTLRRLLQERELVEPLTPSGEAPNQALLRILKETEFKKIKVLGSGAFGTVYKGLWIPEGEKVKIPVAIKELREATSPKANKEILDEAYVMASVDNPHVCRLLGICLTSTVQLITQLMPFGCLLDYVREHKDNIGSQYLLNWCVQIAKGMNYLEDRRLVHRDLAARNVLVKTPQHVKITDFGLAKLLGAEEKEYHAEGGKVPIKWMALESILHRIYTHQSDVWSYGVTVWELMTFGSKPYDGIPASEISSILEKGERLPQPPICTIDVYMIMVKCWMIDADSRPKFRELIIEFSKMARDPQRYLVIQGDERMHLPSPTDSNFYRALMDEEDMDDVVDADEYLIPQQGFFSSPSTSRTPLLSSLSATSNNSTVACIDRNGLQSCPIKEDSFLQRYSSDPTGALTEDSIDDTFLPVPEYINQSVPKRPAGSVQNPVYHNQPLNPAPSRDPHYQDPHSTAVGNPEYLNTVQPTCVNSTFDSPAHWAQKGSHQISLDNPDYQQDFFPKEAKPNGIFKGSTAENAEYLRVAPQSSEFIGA

SMILES | IC50 (human EGF-R) | melting point
CC1(C)CN(CCOc2cc3ncnc(Nc4ccc(F)c(Cl)c4)c3cc2OCC2CC2)CC(=O)O1 [1(1), 4-[(3-Chloro-4-fluorophenyl)amino]-6-cyclopropylmethoxy-7-[2-(6,6-dimethyl-2-oxo-morpholin-4-yl)-ethoxy]-quinazoline] | 29 nM | 
CC1(C)CN(CCCOc2cc3c(Nc4ccc(F)c(Cl)c4)ncnc3cc2OC2CCC2)CC(=O)O1 [1(2), 4-[(3-Chloro-4-fluorophenyl)amino]-7-cyclobutyloxy-6-[3-(6,6-dimethyl-2-oxo-morpholin-4-yl)-propyloxy]-quinazoline] | 29 nM | 212 to 214 °C
CN(CCOc1cc2ncnc(Nc3ccc(F)c(Cl)c3)c2cc1OC1CCCC1)C1COC(=O)C1 (centres unmarked) [2(1), 4-[(3-Chloro-4-fluorophenyl)amino]-6-cyclopentyloxy-7-{2-[N-(2-oxo-tetrahydrofuran-4-yl)-N-methyl-amino]-ethoxy}-quinazoline] | 36 nM | 
COc1cc2ncnc(Nc3ccc(F)c(Cl)c3)c2cc1OCCN1CC(=O)O[C@@H](C)C1 [3(25), 4-[(3-Chloro-4-fluorophenyl)amino]-6-[2-((S)-6-methyl-2-oxo-morpholin-4-yl)-ethoxy]-7-methoxy-quinazoline] |  | 212 to 213 °C
CC1(C)CN(CCOc2cc3ncnc(Nc4ccc(F)c(Cl)c4)c3cc2OCC2CCCC2)CC(=O)O1 [Example 1, 4-[(3-Chloro-4-fluorophenyl)amino]-6-cyclopentylmethoxy-7-[2-(6,6-dimethyl-2-oxo-morpholin-4-yl)-ethoxy]-quinazoline] | 59 nM | 
CN(CCCOc1cc2c(Nc3ccc(F)c(Cl)c3)ncnc2cc1OC1CCC1)C1COC(=O)C1 (centres unmarked) [Example 2(2), 4-[(3-Chloro-4-fluorophenyl)amino]-6-{3-[N-(2-oxo-tetrahydrofuran-4-yl)-N-methyl-amino]-propyloxy}-7-cyclobutyloxy-quinazoline] |  | 147.5 to 151 °C
COc1cc2ncnc(Nc3cccc(Br)c3)c2cc1OCCN1CC(=O)O[C@H](C)C1 [Example 3(1), 4-[(3-Bromo-phenyl)amino]-6-[2-((R)-6-methyl-2-oxo-morpholin-4-yl)-ethoxy]-7-methoxy-quinazoline] |  | 193 °C
COc1cc2ncnc(Nc3ccc(F)c(Cl)c3)c2cc1OCCN1CC(=O)O[C@H](C)C1 [Example 3(2), 4-[(3-Chloro-4-fluorophenyl)amino]-6-[2-((R)-6-methyl-2-oxo-morpholin-4-yl)-ethoxy]-7-methoxy-quinazoline] |  | 208 °C
C[C@@H]1CN(CCCOc2cc3c(Nc4ccc(F)c(Cl)c4)ncnc3cc2OC2CCC2)CC(=O)O1 [Example 3(6), 4-[(3-Chloro-4-fluorophenyl)amino]-6-[3-((R)-6-methyl-2-oxo-morpholin-4-yl)-propyloxy]-7-cyclobutyloxy-quinazoline] |  | 185.5 to 189.5 °C
CC1(C)COC(=O)CN1CCCOc1cc2c(Nc3ccc(F)c(Cl)c3)ncnc2cc1OC1CCC1 [Example 3(7), 4-[(3-Chloro-4-fluorophenyl)amino]-6-[3-(5,5-dimethyl-2-oxo-morpholin-4-yl)-propyloxy]-7-cyclobutyloxy-quinazoline] |  | 214 to 216 °C

Results, then the compound that gave them:

IC50 (human EGF-R) | melting point | SMILES
 | 160.5 to 163 °C | C[C@@H]1CN(CCCOc2cc3c(Nc4ccc(F)c(Cl)c4)ncnc3cc2OCC2CC2)CC(=O)O1 [Example 3(8), 4-[(3-Chloro-4-fluorophenyl)amino]-6-[3-((R)-6-methyl-2-oxo-morpholin-4-yl)-propyloxy]-7-cyclopropylmethoxy-quinazoline]
 | 160 to 162 °C | C[C@H]1CN(CCCOc2cc3c(Nc4ccc(F)c(Cl)c4)ncnc3cc2OCC2CC2)CC(=O)O1 [Example 3(9), 4-[(3-Chloro-4-fluorophenyl)amino]-6-[3-((S)-6-methyl-2-oxo-morpholin-4-yl)-propyloxy]-7-cyclopropylmethoxy-quinazoline]
 | 176 to 178 °C | C[C@@H]1CN(CCOc2cc3c(Nc4ccc(F)c(Cl)c4)ncnc3cc2OC2CCCC2)CC(=O)O1 [Example 3(11), 4-[(3-Chloro-4-fluorophenyl)amino]-6-[2-((R)-6-methyl-2-oxo-morpholin-4-yl)-ethoxy]-7-cyclopentyloxy-quinazoline]
 | 183 to 186 °C | COc1cc2ncnc(Nc3ccc(F)c(Cl)c3)c2cc1OCCCN1CC(=O)O[C@@H](C)C1 [Example 3(23), 4-[(3-Chloro-4-fluorophenyl)amino]-6-[3-((S)-6-methyl-2-oxo-morpholin-4-yl)-propyloxy]-7-methoxy-quinazoline]
 | 187 to 190 °C | COc1cc2ncnc(Nc3ccc(F)c(Cl)c3)c2cc1OCCN(CC(=O)O)C[C@H](C)O [Example 3(26), 4-[(3-Chloro-4-fluorophenyl)amino]-6-{2-[N-(carboxymethyl)-N-((S)-2-hydroxy-propyl)-amino]-ethoxy}-7-methoxy-quinazoline]
 | 229 to 232 °C | COc1cc2ncnc(Nc3ccc(F)c(Cl)c3)c2cc1OCCN1CC(=O)OC(C)(C)C1 [Example 3(27), 4-[(3-Chloro-4-fluorophenyl)amino]-6-[2-(6,6-dimethyl-2-oxo-morpholin-4-yl)-ethoxy]-7-methoxy-quinazoline]
 | 195 to 196 °C | CC1(C)CN(CCOc2cc3c(Nc4ccc(F)c(Cl)c4)ncnc3cc2O[C@@H]2CCOC2)CC(=O)O1 [Example 3(28), 4-[(3-chloro-4-fluorophenyl)amino]-6-[2-(6,6-dimethyl-2-oxo-morpholin-4-yl)-ethoxy]-7-((R)-tetrahydrofuran-3-yloxy)-quinazoline]
 | 184 °C | CC1(C)CN(CCOc2cc3c(Nc4ccc(F)c(Cl)c4)ncnc3cc2OC[C@H]2CCCO2)CC(=O)O1 [Example 3(29), 4-[(3-chloro-4-fluorophenyl)amino]-6-[2-(6,6-dimethyl-2-oxo-morpholin-4-yl)-ethoxy]-7-[(R)-(tetrahydrofuran-2-yl)methoxy]-quinazoline]
 | 202 to 205 °C | CC1(C)CN(CCOc2cc3ncnc(Nc4ccc(F)c(Cl)c4)c3cc2O[C@H]2CCOC2)CC(=O)O1 [Example 3(30), 4-[(3-chloro-4-fluorophenyl)amino]-7-[2-(6,6-dimethyl-2-oxo-morpholin-4-yl)-ethoxy]-6-((S)-tetrahydrofuran-3-yloxy)-quinazoline]
 | 182 °C | CC1(C)CN(CCOc2cc3ncnc(Nc4ccc(F)c(Cl)c4)c3cc2OC[C@@H]2CCCO2)CC(=O)O1 [Example 3(31), 4-[(3-chloro-4-fluorophenyl)amino]-7-[2-(6,6-dimethyl-2-oxo-morpholin-4-yl)-ethoxy]-6-[(S)-(tetrahydrofuran-2-yl)methoxy]-quinazoline]
 | 190 °C | COc1cc2ncnc(Nc3cccc(Br)c3)c2cc1OCCN1CC(=O)O[C@@H](C)C1 [Example 3, 4-[(3-Bromo-phenyl)amino]-6-[2-((S)-6-methyl-2-oxo-morpholin-4-yl)-ethoxy]-7-methoxy-quinazoline]
 | 130 °C | COc1cc2ncnc(Nc3cccc(Br)c3)c2cc1OCCN(CC(=O)OC(C)(C)C)C[C@@H](C)O [Example 4(1), 4-[(3-Bromo-phenyl)amino]-6-(2-{N-[(tert.butyloxycarbonyl)methyl]-N-((R)-2-hydroxy-propyl)-amino}-ethoxy)-7-methoxy-quinazoline]
